Source: patent US20240197596A1, “COMPOUNDS USEFUL AS HAIR DYES” (National University of Singapore, priority 2021, published 2024)
≈ marks a conversion by molar mass, not a printed value.

Assays:
THP-1 cells [1] = test: h-CLAT assay on THP-1 cells: markers against OECD cut-off, prediction, cell viability; assay type: cell-based, human; details: for CD54 and CD86 marker expression against OECD cut-off: 8 doses based on CV75, 24 h
Experimental: (§1) The assay was conducted as per the literature (Toxicol In Vitro, 2006, 20, 767-73). THP-1 cells were cultured in 24-well plates (1×10^6 cells/1 mL/well) with various concentrations of each chemical (N1-N13), +ve control (DNCB), −ve control for 24 h.
(§2) THP-1 cells were cultured in 24-well plates (1×10^6 cells/mL/well) and treated with recommended concentrations of each chemical (N1-N13), positive control (DNCB) or negative control (SLS) for 24 h. THP-1 cells were cultured and treated with 8 doses of N1-N13 based on the CV75 namely, 1.2×CV75, 1×CV75, 1/1.2×CV75, 1/1.2^2×CV75, 1/1.23×CV75, 1/1.24×CV75, 1/1.2^5×CV75 and 1/1.2^6×CV75. After 24 h, cells were transferred to 1.5 mL of microtubes and centrifuged at 450 g, 5 min, 4° C. Supernatant was discarded and cells were washed with 1 mL of FACS buffer (PBS+FBS+HEPES). The cells were centrifuged at 450 g, 5 min, 4° C. 50 μL of Fc block (0.01% of Globlins Cohn fraction II, III) was added and incubated for 10 min at 4° C. The cells were stained with 20 μL APC CD54 (Mouse IgG1, K, BD Biosciences, San Diego, CA, USA), 20 μL FITC CD86 (Mouse IgG1, K, BD Biosciences, San Diego, CA, USA) or their respective isotype controls and incubated for 15 min at room temperature in dark. After incubation, the antibodies were diluted with 200 μl FACS buffer. The cells were washed with 1 mL FACS buffer twice. Further, 200 μL Propidium iodide (PI, 0.625 μg/mL) prepared in FACS buffer was added before the flow cytometry analysis. Flow cytometric analysis was performed with BD LSR Fortessa™ (Becton Dickinson, San Jose, CA, USA) In total, 10,000 living cells were analysed, and data were processed using Flowjo software (v10.6, Ashland, OR, USA). The test concentration providing a cell viability of 75% (CV75) was derived from the dose response curve and was calculated by log-linear interpolation.
(§3) Geometric mean fluorescence intensity (MFI) was measured for CD54^+ and CD86^+ cells separately and percentage relative fluorescence intensity (% RFI), reflective of CD86 and CD54 relative expression was calculated as described below. RFI was not calculated if cell viability fell below 50%.
(§4) All chemicals were tested in three independent experiments. If in two of three independent experiments at any dose exceeded 150% RFI for CD86, or 200% RFI for CD54, the chemicals could be identified as a sensitizer. Otherwise it is identified as a non-sensitizer.

THP-1 cells [2] = test: MTT assay on THP-1 cells (CV75); assay type: cell-based, human
Experimental: THP-1 (human acute monocytic leukaemia cell line) cell suspension was adjusted to 1×10^5 cells per well and seeded in 96-well plates. The plate was incubated at 37° C. with 5% CO2. After 24 h, 10 mM stock solutions of N1-N13 were prepared in autoclaved milli-Q water. A series of concentrations diluted in media was prepared and added to the wells. Each concentration was performed in 6-replicates, and seeded wells with only media and no compound were used as controls while wells with only media were used as blanks. The plate was incubated for 24 h, after which 100 μL of MTT reagent was added and the plate was further incubated for 3 h before adding 100 μL of DMSO. Subsequently, the plate was shaken for 20 min, and then absorbance at 570 nm was determined using a Bio-Tek plate reader. Percentage cell viability was calculated and CV75 values were determined.

[3] = Thermodynamic solubility assay (modified shake flask, LC-MS/MS); details: for solubility at 24 h: 25 °C, pH 7, water, thermodynamic from solid
Experimental: The aqueous solubilities (pH=7) of these compounds were measured using the modified shake flask method and LC-MS/MS. Each hair dye was added into a 2 mL glass vial containing Milli-Q water (1 mL) to form the precipitates at 25° C. Then the mixture was subjected to a solubility-equilibrium stage. The vials were shaken at 300 rpm at 25° C. for 24 h. The precipitate was separated by centrifugation at 23,000 g for 20 min. Subsequently, 0.5 mL of supernatant was transferred into a 1 mL Eppendorf tube, and it was centrifuged again as mentioned above. The supernatant was then used for LC-MS/MS analysis.
The mass spectrometric analysis was performed by use of a AB SCIEX QTRAP 5500 tandem mass spectrometry (MS/MS) system (AB SCIEX, Framingham, MA, USA) operating in triple quadrupole positive mode (ESI+) equipped with an AB Sciex Turbo Ion Spray interface. Acquisition and analysis of data were performed with Analyst software ver. 1.4.2 (Applied Biosystems) which performed all chromatographic peak integration. For each hair dye, a standard curve consisting of four concentrations was established.
Solvent A was composed of 0.1% [v/v] formic acid in Milli-Q water while solvent B was composed of 0.1% [v/v] formic acid in acetonitrile. A mobile phase gradient pumped at 0.6 mL/min was used to elute the hair dyes from the column. The column was equilibrated for 1 min resulting in a total run time of 5 min. The injection volume was 5.0 μL for all derivatives. To prevent compound accumulation on the needle, 50% methanol in ACN was used as needle wash for 30 s per sample.

CD86 = test: h-CLAT assay, CD86 expression by flow cytometry; assay type: cell-based, human; details: for EC150 for CD86 (lowest concentration inducing % RFI of 150): THP-1 cells, 24 h; for RFI for CD86: at CV75, 24 h
Experimental: as §1, §2, §3, §4

IL-8 = details: data from J Hazard Mat., 2021, 402, 123712 (FIG. 6); cited from earlier work
IL-1α = details: data from J Hazard Mat., 2021, 402, 123712 (FIG. 6); cited from earlier work
[4] = data from J Hazard Mat., 2021, 402, 123712, cited from earlier work
CD54 = test: h-CLAT assay, CD54 expression by flow cytometry; assay type: cell-based, human; details: for EC200 for CD54 (lowest concentration inducing % RFI of 200): THP-1 cells, 24 h; for RFI for CD54: at CV75, 24 h
Experimental: as §1, §2, §3, §4

HaCaT cells = details: data from J Hazard Mat., 2021, 402, 123712; cited from earlier work
[5] = in vivo; cited from earlier work
[6] = library of old series (Table 4)
[7] = Milli-Q water, Water Solubility, library of old series (Table 4)

Structure (SMILES): CCCCCCCCCCCCOS(=O)(=O)[O-].[Na+] [SLS, reference compound]
- CD54 and CD86 marker expression against OECD cut-off (THP-1 cells [1]): did not express markers
- CV75 (concentration affording 75% cell viability), 1 × CV75 (THP-1 cells [2]; THP-1 cells, 24 h): 56.0 µg/mL

Structure (SMILES): CCCCCCNc1ccc(N)cc1OCCCCCC [PPD16, reference compound]
- Water Solubility [3, 6]: Insoluble

Structure (SMILES): Nc1ccc(Nc2ccc(Nc3ccc(Nc4ccc(N)cc4)cc3)cc2)cc1 [PPD8, reference compound]
- Water Solubility [3, 6]: Insoluble

Structure (SMILES): Nc1ccc(Nc2ccc(Nc3ccc(N)cc3)cc2)cc1 [PPD 2, reference compound]
- solubility at 24 h [3, 7]: 100 µg/mL (≈ 344 µM)

Structure (SMILES): Cc1ccc(CNc2ccc(Nc3ccc(Nc4ccc(N)cc4)cc3)cc2)cc1 [PPD10, reference compound]
- Water Solubility [3, 6]: Insoluble

Structure (SMILES): COc1ccc(CNc2ccc(Nc3ccc(NCc4ccc(O)cc4)cc3)cc2)cc1 [PPD12, reference compound]
- Water Solubility [3, 6]: Insoluble

Structure (SMILES): CCCCCCOc1cc(Nc2ccc(N)cc2)ccc1N [PPD 5, reference compound]
- Water Solubility [3, 6]: Insoluble

Structure (SMILES): Cc1ccc(CNc2ccc(Nc3ccc(NCc4ccc(C)cc4)cc3)cc2)cc1 [PPD13, reference compound]
- Water Solubility [3, 6]: Insoluble

Structure (SMILES): Nc1ccc(CNc2ccc(Nc3ccc(NCc4ccc([N+](=O)[O-])cc4)cc3)cc2)cc1 [PPD11, reference compound]
- Water Solubility [3, 6]: Insoluble

Structure (SMILES): CCCCC(CC)COc1cc(N)ccc1N (stereo not drawn) [PPD 3, reference compound]
- solubility at 24 h [3, 7]: 80 µg/mL (≈ 338 µM)

Structure (SMILES): CCCCCCOC(=O)c1cc(Nc2ccc(N)cc2)ccc1N [PPD 6, reference compound]
- solubility at 24 h [3, 7]: 1 µg/mL (≈ 3.05 µM)

Structure (SMILES): CCCCCCNc1ccc(Nc2ccc(N)cc2)cc1OCCCCCC [PPD7, reference compound]
- solubility at 24 h [3, 7]: 5 µg/mL (≈ 13 µM)

Structure (SMILES): Cc1cc(N)ccc1N [PTD, 2-methylbenzene-1,4-diamine]
- EC150 for CD86 (lowest concentration inducing % RFI of 150) (CD86): 34.3 µg/mL
- release of IL-8 (IL-8): higher concentrations
- release of IL-1α (IL-1α): higher concentrations
- CD54 and CD86 marker expression against OECD cut-off (THP-1 cells [1]): above the recommended threshold
- solubility at 24 h [3]: 2500 µg/mL (≈ 20500 µM)
- Recovered in donor compartment [4]: 95 % of applied compound dose
- Recovered in skin [4]: 2.1 % of applied compound dose
- Recovered in skin outside diffusion area [4]: 0.0077 % of applied compound dose
- Recovered in skin swabs [4]: 0.48 % of applied compound dose
- Recovered on parafilm and in washes [4]: 0.68 % of applied compound dose
- Total recovery (mean percentage parent compound recovery) [4]: 99 ± 0.33%
- CV75 (concentration affording 75% cell viability), 1 × CV75 (THP-1 cells [2]; human): 43.4 µg/mL
- EC200 for CD54 (lowest concentration inducing % RFI of 200) (CD54): 35.35 µg/mL
- IC50 (HaCaT cells): 73.1 µM

Structure (SMILES): COCc1cc(N)ccc1N [ME-PPD, 2-(methoxymethyl)benzene-1,4-diamine]
- EC150 for CD86 (lowest concentration inducing % RFI of 150) (CD86): 117.9 µg/mL
- release of IL-8 (IL-8): higher concentrations
- release of IL-1α (IL-1α): higher concentrations
- CD54 and CD86 marker expression against OECD cut-off (THP-1 cells [1]): above the recommended threshold
- solubility at 24 h [3, 7]: 78000 µg/mL (≈ 512000 µM)
- Cumulative amount at 8th hour ([4]; 8 h): 0.519 μg/cm^2
- Cumulative amount comparison of PPD vs derivatives ([4]; 8 h): 10.4
- Permeated through skin into receptor [4]: 0.0044 % of applied compound dose
- Recovered in donor compartment [4]: 89 % of applied compound dose
- Recovered in skin [4]: 3.6 % of applied compound dose
- Recovered in skin outside diffusion area [4]: 0.0042 % of applied compound dose
- Recovered in skin swabs [4]: 0.69 % of applied compound dose
- Recovered on parafilm and in washes [4]: 1.84 % of applied compound dose
- Total recovery (mean percentage parent compound recovery) [4]: 95 ± 0.79%
- CV75 (concentration affording 75% cell viability), 1 × CV75 (THP-1 cells [2]; THP-1 cells, 24 h): 144.6 µg/mL
- PPD-allergic individuals who develop an allergic reaction [5]: approximately 30%
- EC200 for CD54 (lowest concentration inducing % RFI of 200) (CD54): 120.5 µg/mL
- IC50 (HaCaT cells): 334 µM

Structure (SMILES): Oc1ccc(CNc2ccc(Nc3ccc(NCc4ccc(O)cc4)cc3)cc2)cc1 [PPD14, reference compound]
- Water Solubility [3, 6]: Insoluble

Structure (SMILES): Cc1ccc(CNc2ccc(Nc3ccc(N)cc3)cc2)cc1 [PPD9, reference compound]
- Water Solubility [3, 6]: Insoluble

Structure (SMILES): CCCCCCOC(=O)c1cc(N)ccc1N [PPD15, reference compound]
- solubility at 24 h [3, 7]: 10 µg/mL (≈ 42.3 µM)

Structure (SMILES): Nc1ccc(N)cc1 [PPD, para-phenylenediamine]
- EC150 for CD86 (lowest concentration inducing % RFI of 150) (CD86): 39.4 µg/mL
- RFI for CD86 (CD86): 210%
- release of IL-8 (IL-8): higher concentrations
- release of IL-1α (IL-1α): higher concentrations
- CD54 and CD86 marker expression against OECD cut-off (THP-1 cells [1]): above the recommended threshold
- marker induction, times lower than DNCB (THP-1 cells [1]; human, 24 h): 1.6
- solubility at 24 h [3]: 40000 µg/mL (≈ 370000 µM)
- solubility in per cent ([3]; water): 4%
- Cumulative amount at 8th hour ([4]; 8 h): 5.4 μg/cm^2
- Permeated through skin into receptor [4]: 0.038 % of applied compound dose
- Recovered in donor compartment [4]: 83 % of applied compound dose
- Recovered in skin [4]: 4.3 % of applied compound dose
- Recovered in skin outside diffusion area [4]: 0.0050 % of applied compound dose
- Recovered in skin swabs [4]: 0.82 % of applied compound dose
- Recovered on parafilm and in washes [4]: 2.19 % of applied compound dose
- Total recovery (mean percentage parent compound recovery) [4]: 93 ± 0.52%
- CV75 (concentration affording 75% cell viability), 1 × CV75 (THP-1 cells [2]; THP-1 cells, 24 h): 65.4 µg/mL
- EC200 for CD54 (lowest concentration inducing % RFI of 200) (CD54): 35.0 µg/mL
- RFI for CD54 (CD54): 270%
- IC50 (HaCaT cells): 23.4 µM

Structure (SMILES): Nc1ccc(Nc2ccc(N)cc2)cc1 [PPD 1, reference compound]
- solubility at 24 h [3, 7]: 500 µg/mL (≈ 2510 µM)

Structure (SMILES): O=[N+]([O-])c1ccc(Cl)c([N+](=O)[O-])c1 [DNCB]
- EC150 for CD86 (lowest concentration inducing % RFI of 150) (CD86): 1.4 µg/mL
- RFI for CD86 (CD86): 326%
- CV75 (concentration affording 75% cell viability), 1 × CV75 (THP-1 cells [2]; THP-1 cells, 24 h): 3.0 µg/mL
- EC200 for CD54 (lowest concentration inducing % RFI of 200) (CD54): 1.5 µg/mL
- RFI for CD54 (CD54): 450%

Structure (SMILES): CCCCCCOc1cc(N)ccc1N [PPD 4, reference compound]
- solubility at 24 h [3, 7]: 80 µg/mL (≈ 384 µM)
